For data set [1], the system named is Streptococci. As to the kind of experiment: MIC on multiresistant and susceptible clinical isolates (Table 1b). Particulars: 8 multiresistant and 8 susceptible isolates. In kind it is cell-based. The method, then:
(§1) Cell growth was tested using the Minimal Inhibitory Concentration (MIC) susceptibility tests by use of the microdilution broth method in accordance to the NCCLS Guidelines (NCCLS Guidelines, Methods for Dilution Antimicrobial Susceptibility Tests for Bacteria That Grow Aerobically; Approved Standard, Sixth Edition, Volume 23; Number 2). The minimum inhibitory concentration (MIC), is defined as the lowest concentration of drug which inhibits growth of the test organism, in the sense that no visible growth is detected (total inhibition of growth). In example 2, MIC of the compounds used on fungal microorgansims was determined from the IC90 measurements according to NCCLS Guidelines.
(§2) A log phase culture of bacteria was diluted with fresh pre-warmed Mueller-Hinton medium and adjusted to a defined OD at 600 nm in order to give a final concentration of 1×10^4-5 bacteria/ml medium. The bacterial culture was transferred to microtiter-plates and culture was added to each well. Drug was added to the bacterial culture in the wells as two-fold dilution series of drug in order to give final concentrations ranging from 0.03 to 128 μg/ml. Trays were incubated at 37° C. by shaking in a robot analyzer, PowerWavex, software KC^4′ Kebo. Lab, Copenhagen, for 16 h and optical densities were measured at 600 nm during the incubation time in order to record growth curves. Wells containing bacterial culture without drug were used as controls to ensure correct inoculum size and bacterial growth during the incubation. Cultures were tested in order to detect contaminations. Each experiment was repeated in triplicate. MIC values represent the mean values of two separate triplicate experiments. Intra- and interassay variation was <5%.
(§3) Clinically relevant human bacterial isolates of Staphylococci, Streptococci, Micrococci and Gram negative species was cultured and assayed as described above for susceptibility towards the compounds listed in table 1b.

The subject of data set [2] is Gram negative sp. The data set is described as above. In kind it is cell-based. Particulars: 8 multiresistant and 8 susceptible isolates. The method, then: as §1, §2, §3
The subject of data set [3] is Staphylococci, Micrococci. Including MRSA. The description is as above. Type of data set: cell-based. The note with it: Micrococci incl. MRSA, 8 multiresistant and 8 susceptible isolates. The method, then: as §1, §2, §3
Data set [4] relates to S. aureus O11. Put plainly: Emergence of in vitro-selected single-step ciprofloxacin resistance. Particulars: ciprofloxacin 1 μg per ml (two times the MIC); inhibitor 1 μg/ml; 24 h. In kind it is cell-based. The method, then: The frequency of mutant selection was determined to be 3×10−8 by comparing the number of colonies that grew on plates containing the anti-infective agent with the number of colonies obtained upon plating appropriate dilutions in the absence of anti-infective agents.

The test system of data set [5] is Candida species. As to the kind of experiment: MIC on clinical isolates of Candida species, broth microdilution NCCLS M27-A (Table 3). Type of data set: cell-based. Particulars: Candida species incl. fluconazole resistant; MIC = 90% growth inhibition. The method, then: The antibacterial effect of demethylated/dealkylated phenothiazine or thioxanthene compounds were studied by growth inhibition studies exposing cells to 0-32 μg/ml of drug. Each experiment was repeated in triplicate. MIC values represent the mean values of two separate triplicate experiments.
4 clinical isolates of Candida species (including 3 fluconazole resistant isolates) were subcultured for 24 h on Sabouraud glucose agar before susceptibility testing. Broth microdilution tests were performed according to NCCLS document M27-A (Ref: National Commitee for Clinical Laboratory Standards. (1997). Reference Method for Broth Dilution Antifungal Susceptibility Testing of Yeasts: Approved Standard M27-A. NCCLS, Wayne, Pa.). Microtitre plates were read spectrophotometrically at 530 nm, after mixing the wells by pipetting to resuspend yeast sediments. In this experiment, the MIC was defined as the lowest drug dilution resulting in 90% growth inhibition.

Data set [6] relates to E. faecalis MDR/VRE clinical isolates. Put plainly: FIC index, synergy with antibiotics (Table 4a). Type of data set: cell-based, Enterococcus faecalis. The note with it: 8 MDR/VRE E. faecalis, mean, compound at ¼ of MIC. The method, then:
The effect of the compounds was tested according to the methods described in WO2005/105145. In brief, cell growth was tested using the MIC susceptibility tests by use of the microdilution broth method in accordance to the NCCLS Guidelines (NCCLS Guidelines, Methods for Dilution Antimicrobial Susceptibility Tests for Bacteria That Grow Aerobically; Approved Standard, Sixth Edition, Volume 23; Number 2).
The Fractional Inhibitory Concentration (FIC) index were calculated for each compound as described in WO2005/105145. Synergy was defined for Fractional Inhibitory Concentration (FIC) indices less than 0.5
Enterococcus faecalis: 8 multidrug resistant in vivo-selected clinical isolates. […] Expressing change in the cell wall precursor target as a major resistance mechanism (VanA gene expression).

Data set [7] has as its system S. aureus. As to the kind of experiment: MIC, microdilution broth, multiresistant clinical isolates (Table 1A). In kind it is cell-based. Particulars: Staphylococcus aureus; ten multiresistant clinical isolates; read-out: Median MIC S. aureus. The method, then: as §1
as §2, with “Drug was added to the bacterial culture in the wells as two-fold dilution series of drug in order to give final concentrations ranging from 0.03 to 128 μg/ml.” left out, “triplicate.” for “triplicate. MIC values represent the mean values of two separate triplicate experiments. Intra- and interassay variation was <5%.”
(§4) Ten strains in each test group.

In data set [8] the test system is E. coli. The data set is described as above. Particulars: Escherichia coli; ten multiresistant clinical isolates; read-out: Median MIC E. coli. In kind it is cell-based. The method, then: as §1
as §2, with “Drug was added to the bacterial culture in the wells as two-fold dilution series of drug in order to give final concentrations ranging from 0.03 to 128 μg/ml.” left out, “triplicate.” for “triplicate. MIC values represent the mean values of two separate triplicate experiments. Intra- and interassay variation was <5%.”
as §4

The test system of data set [9] is E. faecium. The description is as above. The note with it: Enterococcus faecium; ten multiresistant clinical isolates; read-out: Median MIC E. faecium. Type of data set: cell-based. The method, then:
as §1
as §2, with “Drug was added to the bacterial culture in the wells as two-fold dilution series of drug in order to give final concentrations ranging from 0.03 to 128 μg/ml.” left out, “triplicate.” for “triplicate. MIC values represent the mean values of two separate triplicate experiments. Intra- and interassay variation was <5%.”
as §4

Data set [10] relates to E. faecalis. The description is as above. Type of data set: cell-based. Particulars: Enterococcus faecalis; ten multiresistant clinical isolates; read-out: Median MIC E. faecalis. The method, then: as §1
as §2, with “Drug was added to the bacterial culture in the wells as two-fold dilution series of drug in order to give final concentrations ranging from 0.03 to 128 μg/ml.” left out, “triplicate.” for “triplicate. MIC values represent the mean values of two separate triplicate experiments. Intra- and interassay variation was <5%.”
as §4

Data set [11] deals with MT4 cells. As to the kind of experiment: Cytotoxic effect in uninfected MT4 cultures. In kind it is cell-based. Particulars: at the concentrations used. The method, then: (§5) Compounds were examined for possible antiviral activity against strain IIIB of HIV-1 using MT4 cells as target cells. MT4 cells were incubated with virus (0.005 MOI) and growth medium containing the test dilutions of compound(s) for six days in parallel with virus-infected and uninfected control cultures without compound added. Expression of HIV in the cultures was indirectly quantified using the MTT assay as previously described. Compounds mediating less than 30% reduction of HIV expression were considered without biological activity. Compounds were tested in parallel for cytotoxic effect in uninfected MT4 cultures containing the test dilutions of compound as described above. Cultures for test of both antiviral activity and cytotoxic effect were set up in tripleduplicates, […] per culture in micro titre plates. A 30% inhibition of cell growth relative to control cultures was considered significant. The 50% inhibitory concentration was determined by interpolation from the plots of percent inhibition versus concentration of compound.
(§6) CC50 is defined as the inhibitory concentration that reduces cellular growth or viability of uninfected cells by 50%.

Data set [12] is described as follows: Cytotoxic effect in uninfected MT4 cultures. In kind it is cell-based. The note with it: human, uninfected MT4 cells; single agent; uninfected MT4. The method, then: as §5, §6

SMILES strings stand for the structures. ≈ marks a conversion by molar mass, not a printed value. Some results are limits rather than exact numbers.

The term MIC denotes the lowest concentration that inhibits growth of the organism. One may read the CC50 as the concentration that lowers cell viability or growth by half. A high value points to better tolerance by the cells. Turning to `Clc1ccc2c(c1)/C(=C/CCC1CCNCC1)c1ccccc1S2` [Compound 3], the “MIC Mean” value in [1] was determined as 0.25 µg/mL (≈ 0.702 µM); in data set [2], 3 µg/mL (≈ 8.43 µM); in data set [3], 0.25 µg/mL (≈ 0.702 µM). Moreover, the “Frequency of emergence of resistance” value in data set [4] is <1 × 10^−10. In addition, in [5], the “MIC Mean (range)” value is reported as 1.0 (0.25-2.0) μ/ml. For the same compound, the FIC index in data set [6] (with Ciprofloxacin) and in data set [6] (with Dicloxacillin) was 0.25 throughout. Besides, the MIC was found to be 2 µg/mL (≈ 5.62 µM) in data set [7], 3 µg/mL (≈ 8.43 µM) in data set [8], 0.1 µg/mL (≈ 0.281 µM) in data set [9] and 0.1 µg/mL (≈ 0.281 µM) in data set [10]. The “Cytotoxic effect alone” value in data set [11] is “no antiviral or cytotoxic effect”. The compound also showed a CC50 at 6 days in data set [12] of over 4 µM.
